# According to ChEMBL document CHEMBL4507273 (2021):
# How the values were obtained:
# [1] = biological target: Sodium-dependent noradrenaline transporter (Homo sapiens, UniProt P23975); experiment: GPCRScan assay: inhibition of NET; design: radioligand conc. used [nm] 1.3 – 5.0, parental cells stable HEK
# [2] = test system: Tyrosine-protein kinase ABL1 (Homo sapiens), P00519 [Y253F]; settings: Compound concentration 1000.0 nM
# [3] = biological target: RAC-beta serine/threonine-protein kinase (Homo sapiens) (UniProt P31751); settings: Compound concentration 1000.0 nM
# [4] = biological target: Tyrosine-protein kinase BTK (Homo sapiens) (UniProt Q06187); settings: Compound concentration 1000.0 nM
# [5] = biological target: Cyclin-dependent kinase 2 (Homo sapiens) (UniProt P24941); settings: Compound concentration 1000.0 nM
# [6] = biological target: Cyclin-dependent kinase-like 5 (Homo sapiens) (UniProt O76039); settings: Compound concentration 1000.0 nM
# Chain of Cyclin-dependent kinase-like 5 (Homo sapiens) (O76039 whole entry): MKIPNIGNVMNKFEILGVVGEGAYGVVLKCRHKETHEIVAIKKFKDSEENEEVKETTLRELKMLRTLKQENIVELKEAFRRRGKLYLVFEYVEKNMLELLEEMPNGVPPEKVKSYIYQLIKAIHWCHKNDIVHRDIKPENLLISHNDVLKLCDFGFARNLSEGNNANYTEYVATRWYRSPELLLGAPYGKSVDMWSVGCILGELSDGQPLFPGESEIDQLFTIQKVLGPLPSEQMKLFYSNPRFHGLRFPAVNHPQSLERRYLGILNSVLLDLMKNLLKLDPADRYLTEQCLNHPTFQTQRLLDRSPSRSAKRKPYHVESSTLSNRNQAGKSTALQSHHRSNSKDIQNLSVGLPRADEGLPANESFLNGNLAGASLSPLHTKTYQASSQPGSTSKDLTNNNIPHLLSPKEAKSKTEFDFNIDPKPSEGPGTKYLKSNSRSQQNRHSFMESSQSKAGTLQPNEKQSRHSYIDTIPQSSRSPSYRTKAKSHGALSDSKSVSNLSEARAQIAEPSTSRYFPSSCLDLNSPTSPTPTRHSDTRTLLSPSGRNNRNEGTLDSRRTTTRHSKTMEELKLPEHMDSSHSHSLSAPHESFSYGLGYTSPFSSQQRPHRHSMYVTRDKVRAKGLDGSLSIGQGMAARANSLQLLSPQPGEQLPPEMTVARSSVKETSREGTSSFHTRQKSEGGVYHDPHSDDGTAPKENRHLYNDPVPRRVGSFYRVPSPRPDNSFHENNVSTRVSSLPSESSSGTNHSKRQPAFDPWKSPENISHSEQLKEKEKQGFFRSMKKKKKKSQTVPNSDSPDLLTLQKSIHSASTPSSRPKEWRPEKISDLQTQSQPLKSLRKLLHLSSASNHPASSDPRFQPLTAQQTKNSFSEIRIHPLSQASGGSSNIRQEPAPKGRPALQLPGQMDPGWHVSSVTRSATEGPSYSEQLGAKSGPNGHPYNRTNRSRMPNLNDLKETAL
# [7] = biological target: Dual specificity tyrosine-phosphorylation-regulated kinase 1A (Homo sapiens) (UniProt Q13627); settings: Compound concentration 1000.0 nM
# [8] = biological target: Dual specificity tyrosine-phosphorylation-regulated kinase 1B (Homo sapiens) (UniProt Q9Y463); settings: Compound concentration 1000.0 nM
# [9] = biological target: Ephrin type-A receptor 3 (Homo sapiens) (UniProt P29320); settings: Compound concentration 1000.0 nM
# [10] = biological target: Focal adhesion kinase 1 (Homo sapiens) (UniProt Q05397); settings: Compound concentration 1000.0 nM
# [11] = biological target: Tyrosine-protein kinase Fgr (Homo sapiens) (UniProt P09769); settings: Compound concentration 1000.0 nM
# [12] = biological target: Tyrosine-protein kinase JAK3 (Homo sapiens) (UniProt P52333); settings: Compound concentration 1000.0 nM
# [13] = test system: Mast/stem cell growth factor receptor Kit (Homo sapiens), P10721 [V559D,T670I]; settings: Compound concentration 1000.0 nM
# [14] = biological target: MAP/microtubule affinity-regulating kinase 4 (Homo sapiens) (UniProt Q96L34); settings: Compound concentration 1000.0 nM
# [15] = biological target: Dual specificity mitogen-activated protein kinase kinase 4 (Homo sapiens) (UniProt P45985); settings: Compound concentration 1000.0 nM
# Chain of Dual specificity mitogen-activated protein kinase kinase 4 (Homo sapiens) (P45985 whole entry): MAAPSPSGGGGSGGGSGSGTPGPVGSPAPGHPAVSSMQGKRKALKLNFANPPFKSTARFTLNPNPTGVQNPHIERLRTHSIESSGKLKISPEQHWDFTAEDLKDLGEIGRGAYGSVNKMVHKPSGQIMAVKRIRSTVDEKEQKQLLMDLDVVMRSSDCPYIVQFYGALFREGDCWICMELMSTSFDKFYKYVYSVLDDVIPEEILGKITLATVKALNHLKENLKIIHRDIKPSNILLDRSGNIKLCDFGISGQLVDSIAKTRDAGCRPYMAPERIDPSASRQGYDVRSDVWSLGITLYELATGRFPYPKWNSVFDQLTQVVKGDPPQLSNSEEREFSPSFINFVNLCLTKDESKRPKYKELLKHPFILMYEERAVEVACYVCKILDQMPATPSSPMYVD
# [16] = biological target: Serine/threonine-protein kinase PAK 3 (Homo sapiens) (UniProt O75914); settings: Compound concentration 1000.0 nM
# [17] = biological target: Cyclin-dependent kinase 17 (Homo sapiens) (UniProt Q00537); settings: Compound concentration 1000.0 nM
# [18] = biological target: Phosphatidylinositol 4-phosphate 3-kinase C2 domain-containing subunit beta (Homo sapiens) (UniProt O00750); settings: Compound concentration 1000.0 nM
# Chain of Phosphatidylinositol 4-phosphate 3-kinase C2 domain-containing subunit beta (Homo sapiens) (O00750 whole entry, the tested form may be a part, canonical isoform): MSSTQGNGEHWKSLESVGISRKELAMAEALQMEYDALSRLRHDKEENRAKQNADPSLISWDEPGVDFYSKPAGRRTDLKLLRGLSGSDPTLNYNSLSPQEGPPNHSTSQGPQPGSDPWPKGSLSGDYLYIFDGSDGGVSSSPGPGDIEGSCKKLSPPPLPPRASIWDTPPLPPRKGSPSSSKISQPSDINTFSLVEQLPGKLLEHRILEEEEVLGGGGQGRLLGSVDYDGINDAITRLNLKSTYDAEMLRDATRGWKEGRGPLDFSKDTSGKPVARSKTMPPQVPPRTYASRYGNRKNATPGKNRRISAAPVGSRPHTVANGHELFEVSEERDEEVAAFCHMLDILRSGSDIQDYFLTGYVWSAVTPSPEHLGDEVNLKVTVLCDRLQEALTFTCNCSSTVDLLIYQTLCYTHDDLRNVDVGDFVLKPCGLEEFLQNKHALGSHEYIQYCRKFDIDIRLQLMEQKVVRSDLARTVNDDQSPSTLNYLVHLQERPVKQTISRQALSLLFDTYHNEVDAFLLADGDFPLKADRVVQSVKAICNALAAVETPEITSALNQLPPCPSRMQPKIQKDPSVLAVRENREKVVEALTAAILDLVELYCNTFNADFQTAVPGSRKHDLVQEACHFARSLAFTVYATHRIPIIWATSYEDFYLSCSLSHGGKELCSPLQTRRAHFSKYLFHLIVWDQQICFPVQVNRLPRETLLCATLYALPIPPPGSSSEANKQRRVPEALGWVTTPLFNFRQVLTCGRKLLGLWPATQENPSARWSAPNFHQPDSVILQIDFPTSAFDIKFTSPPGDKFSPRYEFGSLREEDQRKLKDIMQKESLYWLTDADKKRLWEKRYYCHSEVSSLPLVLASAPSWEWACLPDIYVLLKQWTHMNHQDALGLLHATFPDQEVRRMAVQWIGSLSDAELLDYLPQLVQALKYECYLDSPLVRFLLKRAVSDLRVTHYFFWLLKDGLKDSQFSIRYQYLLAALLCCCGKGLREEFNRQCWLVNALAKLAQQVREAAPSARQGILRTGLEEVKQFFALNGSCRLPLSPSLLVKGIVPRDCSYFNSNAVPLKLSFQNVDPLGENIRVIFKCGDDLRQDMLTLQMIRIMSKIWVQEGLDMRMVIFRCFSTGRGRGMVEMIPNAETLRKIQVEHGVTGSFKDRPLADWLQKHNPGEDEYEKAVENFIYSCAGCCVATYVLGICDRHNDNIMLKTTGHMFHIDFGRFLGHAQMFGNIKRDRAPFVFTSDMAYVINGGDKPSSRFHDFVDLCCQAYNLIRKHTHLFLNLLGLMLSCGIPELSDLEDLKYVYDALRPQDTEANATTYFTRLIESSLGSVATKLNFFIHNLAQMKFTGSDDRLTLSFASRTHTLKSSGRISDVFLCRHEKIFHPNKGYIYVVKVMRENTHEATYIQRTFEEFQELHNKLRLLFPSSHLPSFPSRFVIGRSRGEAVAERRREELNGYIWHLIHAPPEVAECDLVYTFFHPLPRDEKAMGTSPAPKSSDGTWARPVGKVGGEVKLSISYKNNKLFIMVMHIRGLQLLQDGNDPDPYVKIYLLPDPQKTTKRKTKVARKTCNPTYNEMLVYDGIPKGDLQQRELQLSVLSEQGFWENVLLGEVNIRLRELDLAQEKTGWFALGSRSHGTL
# [19] = test system: Phosphatidylinositol 4,5-bisphosphate 3-kinase catalytic subunit alpha isoform (Homo sapiens), P42336 [M1043I]; settings: Compound concentration 1000.0 nM
# [20] = biological target: Serine/threonine-protein kinase N1 (Homo sapiens) (UniProt Q16512); settings: Compound concentration 1000.0 nM
# [21] = biological target: Serine/threonine-protein kinase PLK2 (Homo sapiens) (UniProt Q9NYY3); settings: Compound concentration 1000.0 nM
# [22] = biological target: T1, Protein kinase C epsilon type (Homo sapiens) (UniProt Q02156); settings: Compound concentration 1000.0 nM
# T1 sequence (whole entry): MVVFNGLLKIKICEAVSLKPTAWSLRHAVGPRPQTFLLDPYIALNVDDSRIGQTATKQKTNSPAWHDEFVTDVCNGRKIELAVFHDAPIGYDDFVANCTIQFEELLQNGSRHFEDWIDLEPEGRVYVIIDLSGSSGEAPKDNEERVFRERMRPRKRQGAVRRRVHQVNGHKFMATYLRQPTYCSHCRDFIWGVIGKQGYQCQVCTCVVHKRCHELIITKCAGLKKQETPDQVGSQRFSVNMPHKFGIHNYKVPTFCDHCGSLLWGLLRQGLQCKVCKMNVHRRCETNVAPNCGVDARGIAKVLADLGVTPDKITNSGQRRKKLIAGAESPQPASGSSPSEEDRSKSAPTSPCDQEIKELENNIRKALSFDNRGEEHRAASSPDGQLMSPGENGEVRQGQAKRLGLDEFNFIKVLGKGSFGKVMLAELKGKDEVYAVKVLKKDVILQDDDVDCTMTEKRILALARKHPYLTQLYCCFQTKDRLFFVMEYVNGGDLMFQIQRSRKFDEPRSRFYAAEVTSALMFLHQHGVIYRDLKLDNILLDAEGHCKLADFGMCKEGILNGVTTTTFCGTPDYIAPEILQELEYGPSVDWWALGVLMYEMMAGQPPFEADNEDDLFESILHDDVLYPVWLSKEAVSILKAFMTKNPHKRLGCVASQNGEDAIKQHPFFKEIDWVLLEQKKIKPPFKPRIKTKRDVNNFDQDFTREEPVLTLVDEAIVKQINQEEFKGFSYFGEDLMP
# [23] = biological target: Serine/threonine-protein kinase D1 (Homo sapiens) (UniProt Q15139); settings: Compound concentration 1000.0 nM
# [24] = biological target: Dual serine/threonine and tyrosine protein kinase (Homo sapiens) (UniProt Q6XUX3); settings: Compound concentration 1000.0 nM
# [25] = biological target: Proto-oncogene tyrosine-protein kinase ROS (Homo sapiens) (UniProt P08922); settings: Compound concentration 1000.0 nM
# [26] = biological target: Ribosomal protein S6 kinase alpha-5 (Homo sapiens) (UniProt O75582); settings: Compound concentration 1000.0 nM
# [27] = biological target: Serine/threonine-protein kinase TAO1 (Homo sapiens) (UniProt Q7L7X3); settings: Compound concentration 1000.0 nM
# [28] = biological target: Serine/threonine-protein kinase tousled-like 2 (Homo sapiens) (UniProt Q86UE8); settings: Compound concentration 1000.0 nM
# Chain of Serine/threonine-protein kinase tousled-like 2 (Homo sapiens) (Q86UE8 whole entry, looked up): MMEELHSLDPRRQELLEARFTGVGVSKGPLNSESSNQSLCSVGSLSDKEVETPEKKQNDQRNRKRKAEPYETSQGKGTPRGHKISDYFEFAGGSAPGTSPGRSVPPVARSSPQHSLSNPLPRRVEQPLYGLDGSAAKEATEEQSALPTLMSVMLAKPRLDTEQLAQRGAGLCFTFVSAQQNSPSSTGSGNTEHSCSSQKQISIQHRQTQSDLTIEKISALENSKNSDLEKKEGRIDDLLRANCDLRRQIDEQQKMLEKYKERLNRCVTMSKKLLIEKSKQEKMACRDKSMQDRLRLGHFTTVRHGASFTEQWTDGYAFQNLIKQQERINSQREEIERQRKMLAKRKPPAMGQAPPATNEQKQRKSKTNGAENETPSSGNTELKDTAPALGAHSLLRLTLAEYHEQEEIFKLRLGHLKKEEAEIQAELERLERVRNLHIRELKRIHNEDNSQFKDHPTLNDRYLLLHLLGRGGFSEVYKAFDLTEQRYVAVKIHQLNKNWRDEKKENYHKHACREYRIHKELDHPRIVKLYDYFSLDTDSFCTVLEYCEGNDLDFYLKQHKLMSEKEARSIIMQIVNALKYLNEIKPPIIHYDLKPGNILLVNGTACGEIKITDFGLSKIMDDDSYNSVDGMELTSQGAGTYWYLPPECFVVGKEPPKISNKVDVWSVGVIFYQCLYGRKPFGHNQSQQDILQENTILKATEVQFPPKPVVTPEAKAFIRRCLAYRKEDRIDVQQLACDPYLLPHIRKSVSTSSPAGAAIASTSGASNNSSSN
# [29] = biological target: Non-receptor tyrosine-protein kinase TNK1 (Homo sapiens) (UniProt Q13470); settings: Compound concentration 1000.0 nM
# [30] = biological target: Vascular endothelial growth factor receptor 2 (Homo sapiens) (UniProt P35968); settings: Compound concentration 1000.0 nM
# [31] = biological target: Serine/threonine-protein kinase 32A (Homo sapiens) (UniProt Q8WU08); settings: Compound concentration 1000.0 nM
# [32] = biological target: Serine/threonine-protein kinase 32B (Homo sapiens) (UniProt Q9NY57); settings: Compound concentration 1000.0 nM
# [33] = biological target: Serine/threonine-protein kinase 32C (Homo sapiens) (UniProt Q86UX6); settings: Compound concentration 1000.0 nM
# Chain of Serine/threonine-protein kinase 32C (Homo sapiens) (Q86UX6 whole entry): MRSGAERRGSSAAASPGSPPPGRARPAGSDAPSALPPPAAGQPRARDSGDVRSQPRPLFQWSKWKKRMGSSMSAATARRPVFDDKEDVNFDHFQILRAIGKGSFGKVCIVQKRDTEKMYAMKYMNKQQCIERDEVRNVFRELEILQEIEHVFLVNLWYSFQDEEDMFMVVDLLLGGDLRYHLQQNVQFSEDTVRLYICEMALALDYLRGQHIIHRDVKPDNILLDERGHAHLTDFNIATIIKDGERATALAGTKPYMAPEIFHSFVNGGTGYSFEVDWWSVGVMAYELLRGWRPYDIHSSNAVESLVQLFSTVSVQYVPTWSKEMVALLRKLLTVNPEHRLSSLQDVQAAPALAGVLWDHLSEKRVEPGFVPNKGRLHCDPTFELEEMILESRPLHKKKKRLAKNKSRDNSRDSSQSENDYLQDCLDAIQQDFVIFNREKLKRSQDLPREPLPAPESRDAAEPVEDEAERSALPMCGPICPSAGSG
# Histamine H2 receptor = Histamine H2 receptor (Homo sapiens, UniProt P25021); settings: Compound concentration 10.0 uM
# [34] = biological target: Alpha-1B adrenergic receptor (Homo sapiens) (UniProt P35368); settings: Compound concentration 10.0 uM
# Chain of Sodium-dependent noradrenaline transporter (P23975 whole entry): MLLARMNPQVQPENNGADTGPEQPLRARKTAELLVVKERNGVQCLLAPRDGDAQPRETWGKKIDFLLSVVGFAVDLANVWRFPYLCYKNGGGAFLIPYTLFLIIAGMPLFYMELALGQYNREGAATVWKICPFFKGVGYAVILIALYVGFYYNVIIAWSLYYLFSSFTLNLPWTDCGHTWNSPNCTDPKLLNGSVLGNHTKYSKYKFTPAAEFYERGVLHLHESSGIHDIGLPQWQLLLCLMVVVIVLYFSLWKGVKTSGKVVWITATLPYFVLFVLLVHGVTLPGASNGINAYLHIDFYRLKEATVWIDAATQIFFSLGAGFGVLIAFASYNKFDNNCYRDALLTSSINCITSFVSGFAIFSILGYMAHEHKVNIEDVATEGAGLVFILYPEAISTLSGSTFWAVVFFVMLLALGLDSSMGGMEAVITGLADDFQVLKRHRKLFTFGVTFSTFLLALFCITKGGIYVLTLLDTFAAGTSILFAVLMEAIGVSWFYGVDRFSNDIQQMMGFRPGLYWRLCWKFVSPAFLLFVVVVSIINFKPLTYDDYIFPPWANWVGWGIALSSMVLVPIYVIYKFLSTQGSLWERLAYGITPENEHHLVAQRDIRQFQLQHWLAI
Compound,Ki ([1]; read-out: Ki) [µM],residual activity [2] [%],residual activity [3] [%],residual activity [4] [%],residual activity [5] [%],residual activity [6] [%],residual activity [7] [%],residual activity [8] [%],residual activity [9] [%],residual activity [10] [%],residual activity [11] [%],residual activity [12] [%],residual activity [13] [%],residual activity [14] [%],residual activity [15] [%],residual activity [16] [%],residual activity [17] [%],residual activity [18] [%],residual activity [19] [%],residual activity [20] [%],further results
CNCc1ccccc1-c1csc([C@H](C)Nc2nc(C)nc3cc(OC)c(OC)cc23)c1 [BAY-294],2.08,94,90,89,91,87,80,55,100,92,100,99,100,100,100,87,100,100,100,100,residual activity [21]: 83%; residual activity [22]: 78%; residual activity [23]: 100%; residual activity [24]: 78%; residual activity [25]: 100%; residual activity [26]: 100%; residual activity [27]: 100%; residual activity [28]: 100%; residual activity [29]: 85%; residual activity [30]: 91%; residual activity [31]: 91%; residual activity [32]: 100%; residual activity [33]: 71%; inhibition (Histamine H2 receptor): 101%; inhibition [34]: 94.7%
CNCc1ccccc1-c1csc([C@@H](C)Nc2nc(C)nc3cc(OC)c(OC)cc23)c1 [BAY-293],0.982,94,72,90,82,94,88,64,87,86,100,94,80,100,86,86,94,86,56,100,Ki ([1]; read-out: pKi (converted)): 0.881 µM; residual activity [21]: 82%; residual activity [22]: 74%; residual activity [23]: 90%; residual activity [24]: 83%; residual activity [25]: 84%; residual activity [26]: 100%; residual activity [27]: 95%; residual activity [28]: 90%; residual activity [29]: 64%; residual activity [30]: 93%; residual activity [31]: 76%; residual activity [32]: 100%; residual activity [33]: 60%; inhibition (Histamine H2 receptor): 100%; inhibition [34]: 85.8%
